From patent US20060128695A1, “Cyclic nucleotide phosphodiesterase inhibitors, preparation and uses” (NEURO3D, priority 2002, published 2006)

biological target: T1, PDE2 (Bos taurus, UniProt P14099); assay: Inhibition of PDE2, radioenzymatic phosphodiesterase assay; assay type: biochemical, bovine; details: not given
T1 construct: PDE2 was prepared from bovine endothelial cells by the same methods; endogenous in cells; host or cells: bovine endothelial cells
T1 sequence (P14099 1-921): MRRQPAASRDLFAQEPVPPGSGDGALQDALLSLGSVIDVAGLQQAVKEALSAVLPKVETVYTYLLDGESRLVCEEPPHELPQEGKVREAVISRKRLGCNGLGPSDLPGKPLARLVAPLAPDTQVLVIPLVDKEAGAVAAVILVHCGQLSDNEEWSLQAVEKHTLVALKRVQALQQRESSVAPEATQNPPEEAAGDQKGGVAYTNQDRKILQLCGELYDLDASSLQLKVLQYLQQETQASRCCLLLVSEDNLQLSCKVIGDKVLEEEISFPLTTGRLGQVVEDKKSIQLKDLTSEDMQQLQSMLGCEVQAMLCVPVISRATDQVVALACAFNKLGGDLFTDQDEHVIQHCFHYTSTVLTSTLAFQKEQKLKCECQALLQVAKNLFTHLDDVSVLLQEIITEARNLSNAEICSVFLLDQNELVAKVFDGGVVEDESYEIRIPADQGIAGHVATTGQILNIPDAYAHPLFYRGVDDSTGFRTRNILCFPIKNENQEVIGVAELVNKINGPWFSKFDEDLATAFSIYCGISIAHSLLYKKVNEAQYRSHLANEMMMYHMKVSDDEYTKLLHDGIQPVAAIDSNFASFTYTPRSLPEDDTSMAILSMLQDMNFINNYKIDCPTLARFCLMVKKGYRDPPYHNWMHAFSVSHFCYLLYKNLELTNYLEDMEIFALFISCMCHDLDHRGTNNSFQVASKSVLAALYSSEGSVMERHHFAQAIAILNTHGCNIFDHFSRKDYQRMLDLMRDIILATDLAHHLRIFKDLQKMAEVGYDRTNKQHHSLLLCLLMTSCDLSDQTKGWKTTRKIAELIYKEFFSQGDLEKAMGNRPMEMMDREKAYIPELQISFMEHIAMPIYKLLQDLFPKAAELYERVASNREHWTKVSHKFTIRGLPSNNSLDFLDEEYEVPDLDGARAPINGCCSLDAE

Compound | IC50 [µM]
CCN1C(=O)CN=C(c2cccc(C(N)=O)c2)c2cc(OC)c(OC)cc21 [Compound 5g, 3-(1-ethyl-7,8-dimethoxy-2-oxo-2,3-dihydro-1H-1,4-benzodiazepin-5-yl)benzamide] | 24.6
CCCN1C(=O)CN=C(c2cccc(C(N)=O)c2)c2cc(OC)c(OC)cc21 [Compound 5f, 3-(7,8-dimethoxy-1-propyl-2-oxo-2,3-dihydro-1H-1,4-benzodiazepin-5-yl)benzamide] | 12.6
COc1cc2c(cc1OC)N(C)C(=O)C(C)N=C2c1cccc(C(N)=O)c1 (centres unmarked) [Compound 5j, 3-(7,8-dimethoxy-1,3-dimethyl-2-oxo-2,3-dihydro-1H-1,4-benzodiazepin-5-yl) benzamide] | 4.5
COc1ccc2c(c1)NC(=O)CN=C2c1cccc(C#N)c1 [Compound 28a, 3-(8-methoxy-2-oxo-2,3-dihydro-1H-1,4-benzodiazepin-5-yl)benzonitrile] | 65
COC(=O)c1cccc(C2=NCC(=O)N(C)c3cc(OC)c(OC)cc32)c1 [Compound 34a, 3-(7,8-dimethoxy-1-methyl-2-oxo-2,3-dihydro-1H-1,4-benzodiazepin-5-yl)methyl benzoate] | 2.6
COc1cc2c(cc1OC)N(C)C(=O)CN=C2c1ccc2c(c1)OCO2 [Compound 17o, 7,8-dimethoxy-1-methyl-5-(3,4-methylenedioxyphenyl)-1,3-dihydro-2H-1,4-benzodiazepin-2-one] | 7.8
COc1cc2c(c(Br)c1OC)C(c1cccc(C#N)c1)=NCC(=O)N2C [Compound 24b, 3-(6-bromo-7,8-dimethoxy-1-methyl-2-oxo-2,3-dihydro-1H-1,4-benzodiazepin-5-yl)benzonitrile] | 3.3
COc1cc2c(cc1OC)N(C)C(=O)CN=C2c1cccc(C#CCNC(=O)OC(C)(C)C)c1 [Compound 6a, Tert-butyl-3-[3-(7,8-dimethoxy-1-methyl-2-oxo-2,3-dihydro-1H-1,4-benzodiazepin-5-yl)phenyl]propynylcarbamate] | 8.4
COc1ccc2c(c1)N(C)C(=O)CN=C2c1cccc(C#N)c1 [Compound 29a, 3-(8-methoxy-1-methyl-2-oxo-2,3-dihydro-1H-1,4-benzodiazepin-5-yl)benzonitrile] | 35

same assay, conditions: read-out: PDE2 percentage inhibition at 10 μM

Compound | inhibition at 10 µM [%]
COc1cc2c(cc1OC)N(Cc1ccccc1)C(=O)CN=C2c1cccc(C(F)(F)F)c1 [Compound 4s, 1-benzyl-5-[3-(trifluoromethyl)phenyl]-7,8-dimethoxy-1,3-dihydro-1,4-benzodiazepin-2-one] | 14
COc1cc2c(cc1OC)C(c1cccc(C#N)c1)=NCC(=S)N2 [Compound 10d, 5-(3-cyanophenyl)-7,8-dimethoxy-1,3-dihydro-2H-1,4-benzodiazepin-2-thione] | 5.5
CCN1C(=O)CN=C(c2cccc(C#CCOCc3ccccc3)c2)c2cc(OC)c(OC)cc21 [Compound 6k, 5-{3-[3-(benzyloxy)prop-1-ynyl]phenyl}-1-ethyl-7,8-dimethoxy-1,3-dihydro-2H-1,4-benzodiazepin-2-one] | 69.7
COc1ccc2c(c1)NC(=O)CN=C2c1cccc(C#N)c1 [Compound 28a, 3-(8-methoxy-2-oxo-2,3-dihydro-1H-1,4-benzodiazepin-5-yl)benzonitrile] | 52.5
COc1cc2c(cc1OC)N(CCc1ccccc1)C(=O)CN=C2c1cccc(C#N)c1 [Compound 4j, 3-[7,8-dimethoxy-2-oxo-1-(2-phenylethyl)-2,3-dihydro-1H-1,4-benzodiazepin-5-yl]-benzonitrile] | 5.6
COc1cc2c(c(-c3ccccc3)c1OC)N(C)C(=O)CN=C2c1cccc(C#N)c1 [Compound 25a, 3-(7,8-dimethoxy-1-methyl-2-oxo-9-phenyl-2,3-dihydro-1H-1,4-benzodiazepin-5-yl)benzonitrile] | 0
COc1cc2c(c(Br)c1OC)NC(=O)CN=C2c1ccccc1 [Compound 28f, 9-bromo-7,8-dimethoxy-5-phenyl-1,3-dihydro-2H-1,4-benzodiazepin-2-one] | 13.5
COc1cc2c(c(-c3ccccc3)c1OC)C(c1cccc(C(N)=O)c1)=NCC(=O)N2C [Compound 5c, 3-(7,8-dimethoxy-1-methyl-2-oxo-6-phenyl-2,3-dihydro-1H-1,4-benzodiazepin-5-yl)benzamide] | 53.3
